Among the data in ChEMBL document CHEMBL1132169 (J Med Chem, 1999) are IC50 and Discrimination ratio values, retold here.

One may read the IC50 as the midpoint of a concentration-inhibition curve. A higher IC50 goes with weaker potency in that assay.

In test [1] the target is T1, Sodium-dependent dopamine transporter (Rattus norvegicus, UniProt P23977). Kind of test: Inhibition of dopamine uptake into rat striatal tissue, using [3H]- dopamine as the radioligand. The test is classed as tissue-based, Striatum.
T1 sequence (P23977 whole entry): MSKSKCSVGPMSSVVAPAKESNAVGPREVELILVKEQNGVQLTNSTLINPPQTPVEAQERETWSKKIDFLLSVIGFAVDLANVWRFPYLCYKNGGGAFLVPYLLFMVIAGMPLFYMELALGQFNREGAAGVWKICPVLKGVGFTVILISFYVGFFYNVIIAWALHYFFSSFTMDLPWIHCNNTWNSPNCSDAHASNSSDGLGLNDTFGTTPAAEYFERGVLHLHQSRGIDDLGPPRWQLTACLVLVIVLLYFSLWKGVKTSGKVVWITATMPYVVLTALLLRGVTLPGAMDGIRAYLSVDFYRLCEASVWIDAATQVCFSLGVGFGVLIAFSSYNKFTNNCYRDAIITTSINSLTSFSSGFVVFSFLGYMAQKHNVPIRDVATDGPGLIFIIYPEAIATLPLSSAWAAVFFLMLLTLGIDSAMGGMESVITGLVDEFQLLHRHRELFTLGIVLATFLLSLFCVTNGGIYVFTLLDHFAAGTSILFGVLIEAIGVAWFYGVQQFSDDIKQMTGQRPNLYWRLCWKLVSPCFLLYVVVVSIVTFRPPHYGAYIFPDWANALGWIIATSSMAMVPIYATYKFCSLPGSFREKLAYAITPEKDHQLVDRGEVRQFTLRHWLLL
Test [2] has as its target Sodium-dependent dopamine transporter (Rattus norvegicus) (UniProt P23977). The test can be described thus: Discrimination ratio of compound is the ratio of inhibitory activity against [3H]dopamine uptake over [3H][…] binding.
Test [3] has as its target T1, Sodium-dependent dopamine transporter. The test can be described thus: Inhibitory binding activity against rat striatal tissue using [3H][…] as the radioligand. The test is classed as tissue-based, Striatum.

Sequence of Sodium-dependent dopamine transporter (Rattus norvegicus) (P23977 whole entry): as above

As for `NCC1C2CCC(CC2)C1c1ccc(N)cc1` (centres undefined), the 50% inhibitory concentration (IC50) in test [1] came out at 0.704 µM; in test [3], 0.16 µM. Further, the Discrimination ratio in test [2] is 4.4.

Turning to `COc1ccc(C2C3CCC(CC3)C2CN)cc1` (centres undefined), the IC50 in test [1] was 1.5 µM; in test [3], 0.249 µM. Also, in test [2], the Discrimination ratio came to 6.

As to `COc1ccc(C2C3CCC(CC3)C2CN(C)C)cc1` (centres undefined), the results for the IC50 in test [1] and in test [3] were 1.43 µM and 0.38 µM, respectively. Moreover, in test [2], the Discrimination ratio amounted to 3.8.
